{"source": "patent US20170105981A1", "about": "“METHODS FOR STABILIZING HYPOXIA INDUCIBLE FACTOR-2 ALPHA AS A METHOD FOR TREATING CANCER” (The Ohio State Innovation Foundation, priority 2011, published 2017)", "key": {"VEGF mRNA": {"tested_on": "VEGF mRNA", "experiment": "VEGF mRNA expression (qPCR) in wild type murine embryonic fibroblasts", "assay_type": "cell-based", "settings": "hypoxic conditions (1% O2), 1, 10 and 100 μM, vs. hypoxia control, FIG. 1A", "method": "(§1) Total RNA was isolated from tissues and cells by using TRIzol™ Reagent (Invitrogen) and the RNeasy kit (Qiagen), respectively. 1 μg RNA was used for reverse transcription using SuperScript II First-Strand Synthersis System (Invitrogen). cDNA's were amplified in a SYR Green or TaqMan Universal Master Mix (Applied Biosystems). Quantitative PCR (qPCR) was performed on ABI Prism 7700 sequence detection system. PCR conditions are: 10 min at 95° C., 40 cycles of 15 seconds at 95° C. and 1 minute at 60° C. The relative amount of mRNA was calculated after normalization to β-actin.\n(§2) Cells were cultured in DMEM (#11965-092, Invitrogen) supplemented with 10% fetal bovine serum (Invitrogen), 100 U/mL penicillin and […] streptomycin. For glucose deprivation, DMEM without glucose (#11966-025, Invitrogen) was used.\n(§3) Mouse embryonic fibroblasts (MEFs) were isolated from E12.5 embryos and immortalized by stable transfection with SV40 large T antigen."}, "[1]": {"tested_on": "phosphoglycerate kinase (PGK) mRNA", "experiment": "PGK mRNA expression (qPCR) in wild type murine embryonic fibroblasts", "assay_type": "cell-based", "settings": "hypoxic conditions (1% O2), 1, 10 and 100 μM, vs. hypoxia control, FIG. 2A", "method": "as §1, §2, §3"}, "VEGF": {"tested_on": "VEGF", "experiment": "VEGF production by human peripheral blood monocytes (ELISA, real-time PCR)", "assay_type": "cell-based", "settings": "monocytes with GM-CSF and compound vs GM-CSF alone; p=0.556; FIG. 11C", "method": "Human peripheral blood mononuclear cells (PBMCs) were isolated from fresh peripheral blood leukocyte source packs (American Red Cross, Columbus Ohio) by density gradient centrifugation over Lymphocyte Separation Medium (Cellgro). Monocytes were purified from total PBMCs by layering over FBS. Monocytes were cultured in endotoxin-free RPMI-1640 supplemented with 1% fetal bovine serum (FBS), 0.1% human serum albumin (HSA), and 10 μg/mL of the endotoxin inhibitor polymyxin B. In some experiments, freshly isolated monocytes were differentiated into macrophages by three-day culture in media containing 10% FBS, 1% PSA (penicillin G sodium, streptomycin sulfate, and amphotericin B), and 20 ng/mL M-CSF. Macrophages were serum-starved for 2 hours prior to stimulation. Monocytes or monocyte-derived macrophages were treated for 24 hours with 10 ng/mL GM-CSF, 10 μM disclosed HIF-2α stabilizer, or an equivalent volume of the vehicle controls (PBS or DMSO, respectively). Cell-free culture supematants were harvested and analyzed for VEGF or sVEGFR-1 by ELISA (R&D Systems).\nHuman monocytes were left untreated or were stimulated with 100 ng/mL GM-CSF at normoxia or at 0.5% O2. At various time-points, cells were harvested in Trizol reagent (Invitrogen) and RNA was extracted in chloroform and then purified using the RNeasy Minikit (Qiagen). In murine studies, organs harvested at the time of euthanasia were flash-frozen in liquid nitrogen, pulverized in liquid nitrogen, and then dissolved in Trizol. cDNA was generated from 1 μg of RNA using the Superscript First Strand Synthesis System (Invitrogen) and used for real-time PCR using previously described primers and SYBR Green PCR Master Mix (Applied Biosciences), according to the manufacturer's instructions. Data were analyzed according to the comparative threshold method and normalized against the β-actin internal control transcript. Results are semi-quantitative and represent the fold difference in transcript levels in a particular sample as compared with levels in untreated cells from the same donor. […]"}, "sVEGFR-1": {"tested_on": "sVEGFR-1", "experiment": "sVEGFR-1 transcription in bone marrow-derived macrophages (LysMcre control vs HIF-2αflox/flox/LysMcre)", "assay_type": "cell-based, mice", "settings": "p=0.036, FIG. 11F", "excerpt": "HIF-2α^flox/flox mice (originally developed by Dr. Celeste Simon, University of Pennsylvania) and LysMcre recombinase mice (originally developed by Irmgard Foerster, University of Duesseldorf) (both purchased from The Jackson Laboratory, Bar Harbor, Me.) were crossed to generate mice homozygous for both LysMcre and the floxed HIF-2α allele. LysMcre recombinase mice, which express no floxed alleles, were used as controls. Deletion of HIF-2α in HIF-2α^flox/flox/LysMcre macrophages, but not the LysMcre control macrophages, was confirmed at the transcript level by real-time PCR.\nTo generate bone marrow-derived macrophages (BDMs), femoral bone marrow was isolated and progenitor cells were plated in RPMI-1640 supplemented with 10% FBS, 1% PSA, 10 μg/mL of polymyxin B, and 20 ng/mL of recombinant murine M-CSF. Cells were cultured for 5 days with the addition of fresh M-CSF every other day. […]\nHuman monocytes were left untreated or were stimulated with 100 ng/mL GM-CSF at normoxia or at 0.5% O2. […] Data were analyzed according to the comparative threshold method and normalized against the β-actin internal control transcript. Results are semi-quantitative and represent the fold difference in transcript levels in a particular sample as compared with levels in untreated cells from the same donor. […]"}}, "data": [{"smiles": "O=C(O)CNC(=O)c1ncc(-c2cccc(F)c2)cc1O", "note": "[disclosed HIF-2α stabilizer, {[5-(3-Fluorophenyl)-3-hydroxypyridine-2-carbonyl]amino} acetic acid]", "values": [{"measurement": "VEGF mRNA (relative amount)", "setting": "VEGF mRNA", "result": "dramatic reduction"}, {"measurement": "PGK mRNA (relative amount)", "setting": "[1]", "result": "dramatic reduction"}, {"measurement": "VEGF transcript levels", "setting": "VEGF", "result": "no difference"}, {"measurement": "sVEGFR-1 transcription", "setting": "sVEGFR-1", "result": "induced"}]}]}
